Data on three compounds can be found in patent US10125095B2, “Abscisic acid derivative” (NATIONAL UNIVERSITY CORPORATION SHIZUOKA UNIVERSITY, priority 2014, dated 2018).

SMILES strings stand for the structures.

For assay [1], the system named is thale cress (Arabidopsis thaliana, Col-0) seedlings. The assay can be described thus: Thale cress growth test. The assay is classed as in vivo. Particulars: sprayed once a day, three weeks' culture. The procedure:
Seeds of thale cress (Arabidopsis thaliana, Col-0) were sequentially immersed for 1 minute respectively in 500 μL of an aqueous solution of 5% bleach+1% SDS, 500 μL of a 70% aqueous solution of ethanol and 500 μL of a 70% aqueous solution of ethanol, washed five times in 1 mL of sterilized water, and then suspended in a 0.1% aqueous solution of agar. 25 mL each of germination medium (containing ½ MS medium inorganic salts) sterilized in an autoclave was added to a sterilized plastic petri dish, in which 60 to 80 seeds suspended in the 0.1% aqueous solution of agar were planted and, in a dark place, the seeds were vernilized at 4° C. for 3 days. The seeds were cultured at 22° C. under continuous light for 10 days. 40 g […] of sterilized soil (organic culture soil:vermiculite=1:1) was added to a plastic pot (50 mm×50 mm×50 mm, 35 mm bottom surface×35 mm height). Six plastic pots thus provided were placed in a 3000 mL-tray, 300 mL (depth 10 mm) of an aqueous solution of 1000-fold diluted HYPONeX (tradename (registered trademark), product of HYPONeX JAPAN CORP., LTD.) was added thereto and five roots each of thale cress seedlings were transplanted from the plastic petri dish. The seedlings were cultured at 22° C. under conditions of 16 hour light period-8 hour dark period, and 1 mL of an aqueous solution (prepared so as the final concentration of the compound of Example 7 to be 50 μM) of 0.1% DMSO (containing the compound of Example 7)+0.1% Approach BI (tradename (registered trademark), product of Kao Corporation) was sprayed once a day. Further, 300 mL of an aqueous solution of 2000-fold diluted HYPONeX was added every week. The same treatment as above was carried out using the compound of Comparative Example 1. Note that the seedlings, to which 1 mL of an aqueous solution of 0.1% DMSO+0.1% Approach BI without containing the above compound was sprayed once a day, were used as controls. […]

Another assay deals with T1, HAB1 (Arabidopsis thaliana, UniProt Q9CAJ0).
T1 construct: GST (N); made in house; host or cells: Escherichia coli BL21(DE3)pLysS
T1 sequence (Q9CAJ0 23-511): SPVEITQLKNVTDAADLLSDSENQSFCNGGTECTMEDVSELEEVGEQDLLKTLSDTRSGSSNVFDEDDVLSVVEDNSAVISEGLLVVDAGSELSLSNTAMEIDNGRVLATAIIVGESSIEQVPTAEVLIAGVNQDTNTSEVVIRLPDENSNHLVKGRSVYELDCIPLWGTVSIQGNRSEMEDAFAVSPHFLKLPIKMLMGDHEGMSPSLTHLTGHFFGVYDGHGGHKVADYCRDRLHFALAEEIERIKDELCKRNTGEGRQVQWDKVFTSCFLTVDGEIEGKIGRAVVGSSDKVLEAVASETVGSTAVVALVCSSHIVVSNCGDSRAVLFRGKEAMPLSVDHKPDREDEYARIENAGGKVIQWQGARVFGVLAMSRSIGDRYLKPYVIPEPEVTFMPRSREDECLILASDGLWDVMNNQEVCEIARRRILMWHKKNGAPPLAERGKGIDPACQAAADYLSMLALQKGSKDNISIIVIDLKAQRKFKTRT
As to the kind of experiment: Protein dephosphorylation enzyme activity test, no receptor. The assay is classed as biochemical, thale cress. Particulars: control = 100%. The procedure: A plasmid (pGex-2T-GST-HAB1 or pET28-6×His-PYL) encoded with PYR/PYL/RCAR proteins (PYL, abscisic acid receptor) or protein dephosphorylation enzyme HAB1 of thale cress was transformed to Escherichia coli (HAB1:BL21(DE3)pLysS, PYL:BL21-codonplus(DE3)-RIPL). Isopropyl-β-thiogalactopyranoside was added to the culture broth, which had been subjected to pre-culture (30° C., 180 rpm, 15 hours) and main culture (30° C., 180 rpm, 4 hours), and the protein-expressed (16° C., 150 rpm, 18 hours) crude enzyme solution was purified using FPLC thereby preparing the recombined PYL (PYR1, PYL1-6, PYL8-10) and HAB1. β-Mercaptoethanol, a manganese chloride aqueous solution, HAB1, PYL, a solution of the sample in dimethylsulfoxide and ultrapure water were sequentially added to a 96-well plate, allowed to stand at 22° C. for 30 minutes. Subsequently p-nitrophenylphosphate, which is the artificial substrate of HAB1, was added thereto to start the reaction, and the plate was placed in a microplate reader (TECAN, Infinite™ N200 NanoQuant). The absorbance at 405 nm due to p-nitrophenol, which is the hydrolysate of p-nitrophenylphosphate, was measured 3 minutes later from the reaction initiation, and HAB1 activity was calculated by the following formula (2). Note that the fraction to which only dimethylsulfoxide was added was considered to be the control and the activity thereof was defined as 100%. […] HAB1 specific activity (%)=Absorbance when sample was added/Absorbance of control×100 (2)

For assay [2], the system named is lettuce (Lactuca saliva) seeds. As to the kind of experiment: Lettuce seed germination test. The conditions noted are these: co-applied with ABA. The assay is classed as in vivo.
The subject of assay [3] is bok choy (Brassica rapa var. chinensis) seeds. As to the kind of experiment: Bok choy seed germination test. The assay is classed as in vivo. Particulars: co-applied with ABA.

As to `CC1=C[C@@H](OCC#Cc2ccc(C)cc2)CC(C)(C)[C@@]1(O)/C=C/C(C)=C\C(=O)O` [Example 7], the “Growth suppression effect of ABA on thale cress” value in assay [1] (50 μM compound co-applied with 5 μM ABA) is “the growth suppression effect by ABA was notably improved and the thale cress growth was recovered to the same extent as the controls”.
As to `CC1=CC(=O)CC(C)(C)[C@@]1(O)/C=C/C(C)=C\C(=O)O` [ABA, abscisic acid], the “HAB1 Specific activity (%) None” value on HAB1 (sample alone) is given as 97%. In assay [1] (only ABA, 5 μM), the “Growth of thale cress” value was “the growth of thale cress was notably suppressed”.
As for `CC1=C[C@@H](OCC#Cc2ccccc2)CC(C)(C)[C@@]1(O)/C=C/C(C)=C\C(=O)O` [Example 1, (2Z,4E)-5-((1S,4S)-1-hydroxy-2,6,6-trimethyl-4-((3-phenylprop-2-yn-1-yl)oxy)cyclohex-2-en-1-yl)-3-methylpenta-2,4-dienoic acid], the “HAB1 Specific activity (%) None” value at HAB1 (ABA + compound) was determined as 81%; on HAB1 (sample alone), 83.8%. Further, the “Recovery of seed germination rate decreased by ABA” value in assay [2] and in assay [3] was “recovered the seed germination rates once decreased by ABA” in each case.
